Reference: ChEMBL document CHEMBL1649296, “Modifying culture conditions in chemical library screening identifies alternative inhibitors of mycobacteria” (Antimicrob Agents Chemother, 2009)
Converted amounts (≈) assume the structure as drawn.

Tests used:
Format in all cases: functional, organism-based
[1] = tested on: Mycolicibacterium smegmatis; experiment: Antimycobacterial activity against Mycobacterium smegmatis grown in carbon-limited broth medium assessed as growth inhibition in mid-logarithmic phase by spectrophotometry
[2] = tested on: Mycolicibacterium smegmatis; experiment: Antimycobacterial activity against Mycobacterium smegmatis grown in nitrogen -limited broth medium assessed as growth inhibition in mid-logarithmic phase by GFP-based fluorescence assay
[3] = tested on: Mycolicibacterium smegmatis; experiment: Antimycobacterial activity against Mycobacterium smegmatis grown in Luria-Bertani broth medium assessed as growth inhibition in mid-logarithmic phase by GFP-based fluorescence assay
[4] = tested on: Mycolicibacterium smegmatis; experiment: Antimycobacterial activity against Mycobacterium smegmatis grown in nitrogen -limited broth medium assessed as growth inhibition in mid-logarithmic phase by spectrophotometry
[5] = tested on: Mycolicibacterium smegmatis; experiment: Antimycobacterial activity against Mycobacterium smegmatis grown in carbon-limited broth medium assessed as growth inhibition in mid-logarithmic phase by GFP-based fluorescence assay
[6] = tested on: Mycolicibacterium smegmatis; experiment: Antimycobacterial activity against Mycobacterium smegmatis grown in Luria-Bertani broth medium assessed as growth inhibition in mid-logarithmic phase by spectrophotometry

| Molecule | IC50 ([1]; Mycolicibacterium smegmatis) [µM] | MIC ([1]; Mycolicibacterium smegmatis) [µM] | IC50 ([2]; Mycolicibacterium smegmatis) [µM] | MIC ([2]; Mycolicibacterium smegmatis) [µM] | IC50 ([3]; Mycolicibacterium smegmatis) [µM] | MIC ([3]; Mycolicibacterium smegmatis) [µM] | IC50 ([4]; Mycolicibacterium smegmatis) [µM] | MIC ([4]; Mycolicibacterium smegmatis) [µM] | IC50 ([5]; Mycolicibacterium smegmatis) [µM] | MIC ([5]; Mycolicibacterium smegmatis) [µM] | IC50 ([6]; Mycolicibacterium smegmatis) [µM] | MIC ([6]; Mycolicibacterium smegmatis) [µM] | further results |
| --- | --- | --- | --- | --- | --- | --- | --- | --- | --- | --- | --- | --- | --- |
| O=S1(=O)N(CCN2CC=C(c3c[nH]c4cc(F)ccc34)CC2)c2cccc3c2N1CCC3 | 25.3 | 25 (≈ 11.3 µg/mL) | 22.3 | 50 (≈ 22.6 µg/mL) | 25.1 | 50 (≈ 22.6 µg/mL) | 22.3 | 50 (≈ 22.6 µg/mL) | 25.3 | 25 (≈ 11.3 µg/mL) | 25.1 | 50 (≈ 22.6 µg/mL) | – |
| Cc1cc(N)c2ccccc2[n+]1CCCCCCCCCCCCCC[n+]1c(C)cc(N)c2ccccc21 | 2.73 | 6.25 | 1.74 | 3.12 | 3.95 | 6.25 | 1.74 | 3.12 | 2.73 | 6.25 | 3.95 | 6.25 | – |
| CN(C)C(CCCCC[N+](C)(C)CCCN1C(=O)c2cccc3cccc(c23)C1=O)CCCN1C(=O)c2cccc3cccc(c23)C1=O (stereo not given) | 11.7 | 50 | 6 | 25 | 8.15 | 50 | 6 | 25 | 11.7 | 50 | 8.15 | 50 | – |
| 4-CHLOROMERCURIBENZOIC ACID | – | – | – | – | – | – | – | – | – | – | – | – | IC50 [1]: 7.65 µM; IC50 [2]: 6.33 µM; IC50 [3]: 7.07 µM; IC50 [4]: 6.33 µM; IC50 [5]: 7.65 µM; IC50 [6]: 7.07 µM |
| 4-[sequence] ACID | – | – | – | – | – | – | – | – | – | – | – | – | MIC [1]: 6.25 µM; MIC [2]: 12.5 µM; MIC [3]: 25 µM; MIC [4]: 12.5 µM; MIC [5]: 6.25 µM; MIC [6]: 25 µM |
| Cc1c(C)c2c(c(C)c1O)CCC(C)(CN1CCN(c3cc(N4CCCC4)nc(N4CCCC4)n3)CC1)O2 (single isomer, unassigned) | > 50 | 50 (≈ 26 µg/mL) | 34.2 | 50 (≈ 26 µg/mL) | > 50 | 50 (≈ 26 µg/mL) | 34.2 | 50 (≈ 26 µg/mL) | > 50 | 50 (≈ 26 µg/mL) | > 50 | 50 (≈ 26 µg/mL) | – |
| CC(C)(C)c1ccc(S(=O)(=O)/C=C/C#N)cc1 [BAY-11-7085] | 2.58 | 6.25 (≈ 1.56 µg/mL) | 6.22 | 12.5 (≈ 3.12 µg/mL) | 30.6 | 50 (≈ 12.5 µg/mL) | 6.22 | 12.5 (≈ 3.12 µg/mL) | 2.58 | 6.25 (≈ 1.56 µg/mL) | 30.6 | 50 (≈ 12.5 µg/mL) | – |
| CNc1ccc2oc(C[C@H]3O[C@@]4(CC[C@H]3C)O[C@H]([C@H](C)C(=O)c3ccc[nH]3)[C@H](C)C[C@H]4C)nc2c1C(=O)O [CALCIMYCIN] | 5.21 | 12.5 (≈ 6.55 µg/mL) | 3.43 | 12.5 (≈ 6.55 µg/mL) | 1.04 | 3.12 (≈ 1.64 µg/mL) | 3.43 | 12.5 (≈ 6.55 µg/mL) | 5.21 | 12.5 (≈ 6.55 µg/mL) | 1.04 | 3.12 (≈ 1.64 µg/mL) | – |
| Clc1ccc(C(c2ccc(Cl)cc2)[n+]2ccn(CC(OCc3ccc(Cl)cc3Cl)c3ccc(Cl)cc3Cl)c2)cc1 (stereo not given) [CALMIDAZOLIUM CHLORIDE] | 13.8 | 50 | 7.02 | 12.5 | 13.2 | 12.5 | 7.02 | 12.5 | 13.8 | 50 | 13.2 | 12.5 | – |
| Clc1ccccc1C(c1ccccc1)(c1ccccc1)n1ccnc1 [CLOTRIMAZOLE] | 18.2 | 50 (≈ 17.2 µg/mL) | 12.2 | 50 (≈ 17.2 µg/mL) | 6.54 | 12.5 (≈ 4.31 µg/mL) | 12.2 | 50 (≈ 17.2 µg/mL) | 18.2 | 50 (≈ 17.2 µg/mL) | 6.54 | 12.5 (≈ 4.31 µg/mL) | – |
| CN(C)[C@@H]1C(O)=C(C(N)=O)C(=O)[C@@]2(O)C(O)=C3C(=O)c4c(O)ccc(Cl)c4[C@@H](O)[C@H]3C[C@@H]12 [DEMECLOCYCLINE] | 5.92 | 6.25 (≈ 2.91 µg/mL) | 4.4 | 6.25 (≈ 2.91 µg/mL) | 1.88 | 3.12 (≈ 1.45 µg/mL) | 4.4 | 6.25 (≈ 2.91 µg/mL) | 5.92 | 6.25 (≈ 2.91 µg/mL) | 1.88 | 3.12 (≈ 1.45 µg/mL) | – |
